Measurements as given in patent US7704490B2 (Institut Pasteur, priority 1998, dated 2010).
Entries after “also recorded” stand apart in the source; their conditions may differ. Blank lines part the entries; values can stand above or below the substance they belong to. No end group written: not given here.

What was measured:
[1] = system: mAb H2-8; assay: ELISA inhibition of mAb H2-8 binding to IL-2 coated plates; set-up: species or system mouse; settings: mAb at about 50% of maximum binding, preincubated with inhibitor
Procedure: Control is represented by non coated plates.
H2-8 was preincubated with different peptides including five decapeptides (1-10, 5-15, 10-20, 15-25, 20-30).

[2] = system: mAb 19B11; assay: ELISA inhibition of mAb 19B11 binding to IL-2 coated plates; set-up: species or system mouse; settings: control mAb
[3] = Circular dichroism, α helix content; assay type: physicochemical; settings: for α-helix content: isolated peptide, circular dichroism
[4] = Sedimentation-diffusion equilibrium, quaternary structure; assay type: physicochemical; settings: concentration above 5×10^−6M
Description: The quaternary structure of peptide IP130 was also studied by sedimentation-diffusion equilibrium.

[5] = system: TS1β cells; assay: TS1β proliferation assay, activity of peptides and IL-2 muteins; assay type: cell-based, murine; settings: for proliferation of TS1β induced by the peptide: in the absence of IL-2
Procedure: Background of 1.4×10^3 cpm was subtracted. […] TS1β target cells are derived from TS1 murine cells (which only express murine IL-2Rγ), after transfection with the human IL-2Rβ gene.
The response to. IL-2 or peptide alone was substracted from that obtained from both IL-2 and peptide.
The biological activity of IL2 mutant Asp 20→Lys (□) is shown for comparison
TS1β cells were cultured (10^4 cells/well) in 96 wells in flat-bottomed microtiter plates with a final volume of 0.2 ml. […] In order to test the inhibitory effect of mAbs, different concentrations of these reagents were mixed in the culture wells with the respective lymphokines for 30 min at low temperature before adding the cells. […] Cultures were pulsed with 0.5 μCi/well of (3H) TdR after 36 h of incubation and harvested 15 h later.

[6] = system: classical murine cell lines (C30-1, CTLL, HT-2, . . . ); assay: IP130 effects on classical murine IL-2 assay cell lines; assay type: cell-based; settings: cells without human IL-2Rβ
Description: IP130 acts only on cell lines expressing human IL-2Rβ. […] Furthermore anti-human IL-2Rβ blocking mAb neutralizes the effects of IP130.

[7] = system: TS1 cells; assay: IP130 proliferation of TS1 cells with or without human IL-2Rβ; assay type: cell-based, murine; settings: with or without transfection by human IL-2Rβ gene
[8] = system: Kit 225 cell line; assay: Protein phosphorylation and c-myc induction in Kit 225 cell line; assay type: cell-based, human
Description: IP130 induces SHC protein phosphorylation. […] Kinetics of Shc phosphorylation is shown on the left. A Western blot of Shc protein is shown on the right.
Alone the peptide induces the phosphorylation of proteins on Kit 225 cell line. […] STAT-3 and STAT-5 are not activated after IP130 stimulation since IL-2Rγ is not involved in IP130 interaction with Kit 225.

[9] = system: STAT; assay: Electrophoretic mobility shift assay of STAT activation in KIT225 nuclear extracts; assay type: cell-based, human; settings: STAT-3 and STAT-5; β-casein, GAS and GIRE probes
[10] = system: NK cells; assay: Cell cycle entry (S+G2/M) of NK cells in stimulated PBMC; assay type: cell-based, human
Procedure: Non-specific responses (J+1 in medium) are subtracted. NK cells entry into S+G2/M phases are measured by propidium iodide and analyzed with the ModFit 2.0 software (Becton Dickinson).

[11] = system: K562 or Daudi target cells; assay: Induction of LAK cells, 51Cr release lysis; assay type: cell-based, human; settings: for induction of LAK cells: PBMCs stimulated 3 or 6 days, lysis of K562 and Daudi targets
Procedure: K562 or Daudi target cells (5×103 in 0.1 ml) labeled with Na2^51CrO4 (Amersham Pharmacia Biotech) were mixed in round-bottomed microwells with an equal volume of effector cells at various E/T ratios. After 4 hours of incubation at 37° C., the plates were centrifuged at 2,000 g for 2 min, and cell-free supernatant were collected using a Luma Plate 96 cell harvester (Lulac-LSC). Supernatant radioactivity was assayed using an automated MicroBeta 1450 trilux γ-counter (Wallac). Spontaneous release was determined by incubating target cells in medium alone. Maximum release was determined by adding 0.1 ml of 1M HCl to the target cell suspension. The percentage of specific lysis was calculated as follows: 100×(experimental ^51Cr release−spontaneous release)/(maximum ^51Cr release−spontaneous ^51Cr release).

[12] = system: IFN-γ production; assay: IFN-γ production; assay type: cell-based
[13] = biological target: T1, IL-2Rβ (Homo sapiens, UniProt P14784); settings: cited from earlier work
T1 sequence (P14784 27-551): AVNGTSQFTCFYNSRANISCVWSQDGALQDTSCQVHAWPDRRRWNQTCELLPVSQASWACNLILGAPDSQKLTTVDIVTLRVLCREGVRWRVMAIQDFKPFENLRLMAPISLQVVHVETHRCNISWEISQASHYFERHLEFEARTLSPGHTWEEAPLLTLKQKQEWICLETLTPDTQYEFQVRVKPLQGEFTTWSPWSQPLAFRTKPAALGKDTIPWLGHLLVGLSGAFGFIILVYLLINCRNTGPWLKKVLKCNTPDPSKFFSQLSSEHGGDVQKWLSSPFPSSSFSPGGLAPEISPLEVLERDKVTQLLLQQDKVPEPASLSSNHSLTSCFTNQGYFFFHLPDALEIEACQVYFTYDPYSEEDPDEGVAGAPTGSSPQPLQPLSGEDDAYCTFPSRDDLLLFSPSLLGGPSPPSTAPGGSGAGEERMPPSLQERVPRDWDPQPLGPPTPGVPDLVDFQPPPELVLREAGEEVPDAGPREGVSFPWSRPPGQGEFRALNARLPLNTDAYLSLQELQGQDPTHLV

[14] = system: IL-2R; assay: Affinity of IL-2 mutant for IL-2R; assay type: binding; settings: compared with IL-2

Substance: APTSSSTKKTQLQLEHLLLDLQMILNGINN [IP130]
inhibition of the binding of mAb H2-8 to IL-2 [1]: most efficient inhibitor
inhibition of the binding of mAb 19B11 to IL-2 [2]: inhibited
residues in an α helix configuration ([3]; 20° C., phosphate buffer (20 mM, pH 7.2)): 50%
α-helix content [3]: 50%±7%
quaternary structure [4]: most of the molecules are in a tetrameric form
IC-50 of proliferation and of synergy with IL-2 ([5]; both activities at comparable concentrations): IC-50≅μM
proliferation of TS1β induced by the peptide [5]: stimulates the proliferation
synergy with IL-2 on TS1β proliferation ([5]; in the presence of IL-2): strong synergy
sensitivity of classical murine cell lines to the peptide [6]: insensitive
proliferation of TS1 cells in the presence of IP130 [7]: TS1 cells only proliferate after transfection by the human IL-2Rβ gene
c-myc induction [8]: observed
phosphorylation of IL-2Rβ ([8]; immunoprecipitation, blotting with mAb 4G10 (anti-Ptyr)): phosphorylated IL-2Rβ is identified
phosphorylation of Shc ([8]; peptide alone): the kinase Shc is easily recognized; also recorded: phosphorylated after a ten minute stimulation
STAT activation [9]: not activated; also recorded: does not induce STAT activity
entry of NK cells into the cell cycle [10]: induces NK cells to enter into the cell cycle
induction of LAK cells [11]: able to induce LAK cells in a concentration dependent manner; also recorded: potent LAK cell response
LAK response compared with IL-2, day 3 ([11]; day 3): weaker than that of IL-2
LAK response compared with IL-2, day 6 ([11]; day 6): comparable
induction of IFN-γ production [12]: ability to induce LAK cells and IFNγ production

Substance: IL2 Asp 20→Lys mutant: IL-2 with substitution Asp20 by Lys [reference compound]
biological activity on Ts1β cells ([5]; 5×10-3 to 10 nM, compared with IL-2 (FIG. 18)): clearly reduced
binding to IL-2Rβ [13]: prevents binding to IL-2Rβ

Substance: IL-2 Pro125: IL-2 mutant IL-2 Pro125 (Cys→Pro) [reference compound]
maximum proliferation of TS1β ([5]; higher concentrations of mutant): without affecting the maximum proliferation
affinity for IL-2R [14]: slightly reduces the affinity

Substance: IP131 Asp 20→Lys: Peptide 1-31 mutated at position 20 (Asp→Lys), SEQ ID NO:8 (APTSSSTKKTQLQLEHLLLKLQMILNGINNY)
proliferation of TS1β induced by the peptide [5]: maintains its inductive capacity on proliferation
induction of LAK cells [11]: capacity to generate LAK cells
induction of IFN-γ production [12]: induce IFN-γ production

inhibition of the binding of mAb 19B11 to IL-2 [2]: inhibited
Substance: peptide 1-10: synthetic IL-2 decapeptide, residues 1-10 (APTSSSTKKT-NH2; UniProt P60568 21-30, looked up, fragment)

inhibition of the binding of mAb 19B11 to IL-2 [2]: inhibited
Substance: peptide 1-22: synthetic IL-2 peptide, residues 1-22 (APTSSSTKKTQLQLEHLLLDLQ; UniProt P60568 21-42, looked up, fragment)
α-helix content [3]: 13%±5%
